Like-named read-outs stand apart in the source and are kept apart here.
How the values were obtained:
[1] = system: H3K18Ac in HB-CLS-2 cells; assay: H3K18AC in-cell western (ICW) assay; format: cell-based; conditions: H3K18Ac in-cell western, read-out: CREBBP ICW IC50
Source text: The following example describes methods and materials relating to an H3K18AC in-cell western assay. IC50 values (micromolar (μM)) are summarized in Table 1, Table 2, and Table 3 under the column labeled: “CREBBP ICW IC50 (micromolar).”
MATERIALS: HB-CLS-2 cell line, DMEM: Ham's F12 medium (1:1 mixture), penicillin-streptomycin, heat inactivated fetal bovine serum, D-PBS, Odyssey blocking buffer, 800CW goat anti-rabbit IgG (H+L) antibody, Licor Odyssey CLx Infrared Scanner, H3K18Ac rabbit monoclonal antibody. DRAQS fluorescent probe solution (5 mM), and 100% methanol were commercially available. HB-CLS-2 adherent cells were maintained in complete growth medium (DMEM: Ham's F12 supplemented with 10% v/v heat inactivated fetal bovine serum) and cultured at 37° C. under 5% CO2.
METHOD: Cell Treatment, ICW for detection of H3K18Ac and DNA content. HB-CLS-2 cells were seeded in assay medium (DMEM: Ham's F12 supplemented with 10% v/v heat inactivated fetal bovine serum and 1% Penicillin/Streptomycin) at a concentration of 80,000 cells per mL in a Poly-D-Lysine coated 384-well culture plates at 50 μL per well. Plates were incubated at room temperature for 30 minutes and then incubated at 37° C., 5% CO2 for additional 16-24 hours. Compounds and DMSO normalization were then added directly to the plates using a D300 Digital Dispenser and returned to the incubator at 37° C., 5% CO2 for 2 hrs. After the incubation, the contents of the plates were discarded into the appropriate waste stream and blotted on laboratory tissue to remove residual liquid. 90 μL per well of 100% ice cold methanol was added to the plates and incubated at room temperature for 15 minutes. Then methanol was then discarded into the appropriate waste stream and the plates again blotted on laboratory tissue to remove residual liquid. Plates were transferred to a Biotek 405 plate washer and washed 3 times with 100 μL per well of wash buffer (1X PBS containing 0.1% Triton X-100 (v/v)). Next, 50 μL per well of Odyssey blocking buffer with 0.1% Tween 20 (v/v) was added to each plate and incubated for 1 hour at room temperature. Blocking buffer was removed and 20 μL of primary antibody were added (α-H3K18Ac diluted 1:800 in Odyssey buffer with 0.1% Tween 20 (v/v)) and plates were incubated overnight (16 hours) at 4° C. Plates were washed 5 times with 100 μL per well of wash buffer. Next 20 μL per well of secondary antibody was added (1:400 800CW goat anti-rabbit IgG (H+L) antibody, 1:2000 DRAQ5 in Odyssey buffer with 0.1% Tween 20 (v/v)) and incubated for 1 hour at room temperature. The plates were washed 3 times with 100 μL per well wash buffer then 3 times with 100 μL per well of water. Plates were allowed to dry at room temperature then imaged on the Licor Odyssey CLx machine which measured integrated intensity at 700 nm and 800 nm wavelengths. Both 700 and 800 channels were scanned.

CREBBP (1084-1701) = biological target: T1, CREBBP (1084-1701) (Homo sapiens, UniProt Q92793); assay: Biochemical assay for CREBBP (1084-1701), SAMDI; conditions: SAMDI, read-out: CREBBP Biochemistry IC50
T1 construct: measured in the following biochemical assay using CREBBP (1084-1701); purchased
T1 sequence (Q92793 1084-1701): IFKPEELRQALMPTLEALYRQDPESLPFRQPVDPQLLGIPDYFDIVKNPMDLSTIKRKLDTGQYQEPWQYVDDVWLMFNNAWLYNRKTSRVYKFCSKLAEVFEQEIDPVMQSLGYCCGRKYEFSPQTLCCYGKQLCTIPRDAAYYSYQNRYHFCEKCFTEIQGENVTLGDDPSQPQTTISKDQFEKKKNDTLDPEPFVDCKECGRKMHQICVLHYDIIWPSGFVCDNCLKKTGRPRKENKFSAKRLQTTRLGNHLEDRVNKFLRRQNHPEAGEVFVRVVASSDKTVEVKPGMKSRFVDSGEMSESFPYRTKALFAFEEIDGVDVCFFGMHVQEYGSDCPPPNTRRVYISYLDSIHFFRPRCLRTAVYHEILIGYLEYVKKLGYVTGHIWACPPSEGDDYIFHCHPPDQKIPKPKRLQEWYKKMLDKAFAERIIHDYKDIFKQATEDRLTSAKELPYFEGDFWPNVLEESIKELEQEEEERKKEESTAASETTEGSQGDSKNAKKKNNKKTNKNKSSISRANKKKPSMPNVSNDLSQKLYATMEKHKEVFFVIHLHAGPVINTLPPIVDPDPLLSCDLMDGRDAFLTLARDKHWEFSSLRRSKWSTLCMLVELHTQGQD
Source text: The following example describes materials and methods relating to a biochemical assay for CREBBP (1084-1701). IC50 values (micromolar (μM)) are summarized in Table 1, Table 2, and Table 3 under the column labeled: “CREBBP Biochemistry IC50 (micromolar).”
MATERIALS: Reagents 1M Tris pH 8.0, Tween 20 10%, DTT, bovine serum gelatin (BSG) 2%, Peptide #233 (biotin-H3 11-25, K14R, K23R), Acetyl-CoA, CREBBP (1084-1701), formic acid (100%), and sodium bicarbonate were commercially available.
METHODS: The effect of compounds was measured in the following biochemical assay using CREBBP (1084-1701). Enzyme mix 30 μL per well was added using a Multi-drop to wells of prepared Compound Stock plate. The enzyme was incubated in the Compound Stock plate for 30 minutes at room temperature. Substrate mix, 20 μL per well, was added to Compound Stock plate using a Multi-drop. The plate was covered and incubate 30 minutes at room temperature. The reaction was stopped with addition of 5 μL per well of 5% formic acid using a Multi-drop. The plate was Incubated for 30 minutes at room temperature. The reaction mixture was neutralized with addition of 5 μL per well of 10% sodium bicarbonate using a Multi-drop. The plate was Incubated for 35 minutes at room temperature. The reaction mixture was Transferred 2.5 μL per well to a SAMDI biochip. The plate was Incubated for 60 minutes at room temperature. The samples were washed, dried, and matrix applied to SAMDI biochip. The SAMDI biochip was then read on the mass spectrometer.

IC50 [1] | IC50 (CREBBP (1084-1701)) | IC50 ([1]; HB-CLS-2 cells) | Compound
 | 220 nM | 570 nM | CCn1ncc(CN(C)C(=O)c2nc(-c3ccccc3C#N)nc3ccc(Cl)cc23)c1C [Compound 294]
 | 1800 nM | 3200 nM | CCn1ncc(CN(C)C(=O)c2nc(-c3cc(Cl)ccc3Cl)nc3ccc(Cl)cc23)c1C [Compound 297]
 | 28 nM | 610 nM | Cc1c(CN(C)C(=O)c2nc(-c3cccc(Cl)c3)nc3ccc(Cl)cc23)cnn1C(C)C [Compound 299]
 | 2000 nM | 3900 nM | CCn1ncc(CN(C)C(=O)c2nc(-c3cccc(C#N)c3)nc3ccc(Cl)cc23)c1C [Compound 301]
 | 2500 nM | 8900 nM | CCN(Cc1cnn(CC)c1C)C(=O)c1cc(-c2ccccc2Cl)nc2ccc(Cl)cc12 [Compound 302]
 | 72 nM | 580 nM | CCc1ccc2nc(-c3ccccc3Cl)nc(C(=O)N(C)Cc3cnn(CC)c3C)c2c1 [Compound 312]
 | 1900 nM | 1900 nM | CCn1ncc(CN(C)C(=O)c2nc(-c3cscn3)nc3ccc(Cl)cc23)c1C [Compound 313]
 | 350 nM | 1700 nM | CCn1ncc(CN(C)C(=O)c2nc(-c3cccc(F)c3)nc3ccc(Cl)cc23)c1C [Compound 316]
 | 230 nM | 1500 nM | CCn1ncc(CN(C)C(=O)c2nc(-c3cccc(C)c3)nc3ccc(Cl)cc23)c1C [Compound 317]
 | 9000 nM | 17000 nM | CCn1ncc(CN(C)C(=O)c2cc(-c3cccc(Cl)c3)nc3ccc(NC)cc23)c1C [Compound 330]
 | 530 nM | 1500 nM | CCn1ncc(CN(C)C(=O)c2nc(-c3ccccc3F)nc3ccc(Cl)cc23)c1C [Compound 335]
 | 690 nM | 1200 nM | CCc1ncc(CN(C)C(=O)c2cc(-c3ccccc3Cl)nc3ccc(Cl)cc23)n1C [Compound 336]
 | 630 nM | 2300 nM | Cc1c(CN(C)C(=O)c2nc(-c3ccccc3Cl)nc3ccc(Cl)cc23)cnn1CC(F)(F)F [Compound 337]
 | 420 nM | 1300 nM | CCn1ncc(CN(CCO)C(=O)c2nc(-c3cccc(Cl)c3)nc3ccc(Cl)cc23)c1C [Compound 346]
 | 530 nM | 5600 nM | CCN(Cc1cnn(CC)c1C)C(=O)c1nc(-c2cccc(Cl)c2)nc2ccc(Cl)cc12 [Compound 347]
 | 630 nM | 6400 nM | CCn1ncc(CN(C)C(=O)c2cc(-c3ccccc3Cl)nc3c(C)cc(Cl)cc23)c1C [Compound 350]
 | 400 nM | 1900 nM | CCc1noc(CN(C)C(=O)c2nc(-c3ccccc3Cl)nc3ccc(Cl)cc23)c1C [Compound 356]
 | 28 nM | 720 nM | CCn1ncc(CN(C)C(=O)c2nc(-c3cccc(Cl)c3)nc3ccc(COC)cc23)c1C [Compound 357]
 | 16000 nM | 13000 nM | CCn1ncc(CN(C)C(=O)c2nc(-c3cn[nH]c3)nc3ccc(Cl)cc23)c1C [Compound 358]
 | 400 nM | 1000 nM | CCn1ncc(CN(C)C(=O)c2nc(-c3ccccc3Cl)nc3cc(C)c(Cl)cc23)c1C [Compound 359]
 | 2.8 nM | 480 nM | CCc1ccc2nc(-c3cccc(Cl)c3)nc(C(=O)N(C)Cc3cnn(CC)c3C)c2c1 [Compound 361]
 | 710 nM | 1200 nM | CCn1ncc(CN(C)C(=O)c2nc(-c3ccccc3C)nc3ccc(Cl)cc23)c1C [Compound 362]

Further lines, the compound ahead of its results:

Compound | IC50 [1] | IC50 (CREBBP (1084-1701)) | IC50 ([1]; HB-CLS-2 cells)
CCn1ncc(CN(C)C(=O)c2cc(-c3ccccc3Cl)nc3ccc(Cl)cc23)c1C [Compound 95] | 1800 nM | 250 nM | 
CCn1ncc(CN(C)C(=O)c2cc(-c3ccccc3Cl)nc3cc(Cl)c(Cl)cc23)c1C [Compound 97] | 1900 nM | 470 nM | 
CCn1ncc(CN(C)C(=O)c2cc(-c3ccccc3OC)nc3ccc(Cl)cc23)c1C [Compound 98] | 2000 nM | 400 nM | 
CCn1ncc(CN(C)C(=O)c2cc(-c3cccc(Cl)c3)nc3ccc(C)cc23)c1C [Compound 126] | 4300 nM | 980 nM | 
CCn1ncc(CN(C)C(=O)c2cc(-c3ccccc3)nc3ccc(Cl)cc23)c1C [Compound 140] | 6100 nM | 3900 nM | 
CCn1ncc(CN(C)C(=O)c2cc(-c3ccccc3)nc3ccc(C)cc23)c1C [Compound 150] | 8200 nM | 6600 nM | 
CCn1ncc(CN(C)C(=O)c2nc(-c3cnn(C4CCNC4)c3)nc3ccc(Cl)cc23)c1C (stereo not shown) [Compound 206] |  | 192000 nM | 20000 nM
CCn1ncc(CN(C)C(=O)c2nc(-c3cnn(CCCO)c3)nc3ccc(Cl)cc23)c1C [Compound 212] |  | 96000 nM | 20000 nM
CCn1ncc(CN(C)C(=O)c2nc(-c3cnn(CCNC)c3)nc3ccc(Cl)cc23)c1C [Compound 213] |  | 135000 nM | 20000 nM
CCn1ncc(CN(C)C(=O)c2nc(Cc3ccccc3)nc3ccc(Cl)cc23)c1C [Compound 225] |  | 96000 nM | 20000 nM
CCc1onc(CN(C)C(=O)c2nc(-c3ccccc3Cl)nc3ccc(Cl)cc23)c1C [Compound 231] |  | 76000 nM | 20000 nM
CCn1ncc(CN(C)C(=O)c2nc(-c3ccc(OCCCN(C)C(=O)OC(C)(C)C)cc3)nc3ccc(Cl)cc23)c1C [Compound 242] |  | 57000 nM | 20000 nM
CCn1ncc(CN(C)C(=O)c2cc(-c3cn(CCCNC(=O)OC(C)(C)C)cn3)nc3ccc(Cl)cc23)c1C [Compound 243] |  | 99000 nM | 20000 nM
CCn1ncc(CN(C)C(=O)c2nc(-c3cnn(CCCNC)c3)nc3ccc(Cl)cc23)c1C [Compound 250] |  | 121000 nM | 20000 nM
CCn1ncc(CN(C)C(=O)c2nc(-c3cccc(Cl)c3Cl)nc3ccc(Cl)cc23)c1C [Compound 259] |  | 2.6 nM | 180 nM
CCn1ncc(CN(C)C(=O)c2nc(-c3cccc(Cl)n3)nc3ccc(Cl)cc23)c1C [Compound 260] |  | 1700 nM | 3600 nM
CCn1ncc(CN(C)C(=O)c2nc(-c3ccccc3Cl)nc3ccc(COC)cc23)c1C [Compound 276] |  | 620 nM | 1500 nM
Cc1c(CN(C)C(=O)c2nc(-c3ccccc3Cl)nc3ccc(Cl)cc23)cnn1C(C)C [Compound 279] |  | 82 nM | 760 nM
CCn1ncc(CN(C)C(=O)c2nc(-c3ccccc3OC)nc3ccc(Cl)cc23)c1C [Compound 281] |  | 830 nM | 1300 nM
CCn1ncc(CN(C)C(=O)c2nc(-c3ccc(C)cc3)nc3ccc(Cl)cc23)c1C [Compound 282] |  | 5500 nM | 11000 nM
CCn1ncc(CN(C)C(=O)c2nc(-c3cccc(Br)c3)nc3ccc(Cl)cc23)c1C [Compound 283] |  | 0.89 nM | 670 nM
Cc1c(CN(C)C(=O)c2nc(-c3ccccc3Cl)nc3ccc(Cl)cc23)cnn1C1CC1 [Compound 285] |  | 4200 nM | 2700 nM
